Strand notation (5' to 3'): a small letter for the sugar, then the base; units joined by * are phosphorothioate-linked, units joined directly phosphodiester-linked; [ ] holds rarer units or linkages, { } end groups; capitals alone tell only the bases. k = constrained ethyl (cEt); [5mC] = 5-methylcytosine; d = 2'-deoxy (DNA)
What follows are substances tested on human SMAD7 mRNA (assay: Antisense inhibition of human SMAD7 mRNA expression in Hep3B cells by 3-10-3 cEt gapmers, 10,000 nM, electroporation (Example 2)). Conditions: Hep3B cells, 10,000 nM antisense oligonucleotide, electroporation, approximately 24 hours, RT-PCR primer probe set RTS5062, relative to untreated control cells.
Assay type: cell-based
Experimental: Antisense oligonucleotides were designed to target human SMAD7 mRNA and were tested for their effects on SMAD7 mRNA expression in vitro. The antisense oligonucleotides were tested in a series of experiments that had similar culture conditions, as described below. ION 771576, described in the studies above and which is a 5-10-5 MOE gapmer, was also included in these assays. Cultured Hep3B cells at a density of 20,000 cells per well were transfected using electroporation with 10,000 nM antisense oligonucleotide. After a treatment period of approximately 24 hours, RNA was isolated from the cells and SMAD7 mRNA levels were measured by quantitative real-time PCR. Primer probe set RTS5062 was used to measure human SMAD7 mRNA levels. SMAD7 mRNA levels were adjusted according to total RNA content, as measured by RIBOGREEN®. Results are presented as percent inhibition of SMAD7 mRNA expression, relative to untreated control cells.
The newly designed chimeric antisense oligonucleotides in the Tables below were designed as 3-10-3 cEt gapmers. The gapmers are 16 nucleosides in length, wherein the central gap segment comprises often 2′-deoxynucleosides and is flanked by wing segments on the 5′ direction and the 3′ direction comprising three nucleosides each. Each nucleoside in the 5′ wing segment and each nucleoside in the 3′ wing segment has a cEt sugar modification. The internucleoside linkages throughout each gapmer are phosphorothioate (P═S) linkages. All cytosine residues throughout each gapmer are 5-methylcytosines.
“Start site” indicates the 5′-most nucleoside to which the gapmer is targeted in the human gene sequence. “Stop site” indicates the 3′-most nucleoside to which the gapmer is targeted human gene sequence. […] Some of the oligonucleotides presented were complementary to SMAD7 mRNA sequences RefSeqNo. NM_001190821.1 (designated herein as SEQ ID NO: 3) or RefSeqNo. NM_001190822.1 (designated herein as SEQ ID NO: 4), and are presented in a separate table shown below.

Row | Substance | % Inhibition [%]
1 | 799936 (antisense k[5mC]*kT*kT*dT*dA*dA*dT*dT*dT*d[5mC]*dA*dG*dA*kG*kT*k[5mC]) [compound 799936] | 44
2 | 798875 (k[5mC]*kG*k[5mC]*dT*dG*d[5mC]*dA*dG*dG*d[5mC]*dT*dG*dT*kA*k[5mC]*kG; antisense) [compound 798875] | 58
3 | 800071 (antisense kT*kG*kT*dA*dT*dT*dT*dG*dT*dT*dA*dA*d[5mC]*kA*kA*kA) [compound 800071] | 2
4 | 798840 (k[5mC]*kT*k[5mC]*dT*dT*dG*dT*dT*dG*dT*d[5mC]*d[5mC]*dG*kA*kA*kT; antisense) [compound 798840] | 56

Same assay, conditions: Hep3B cells, electroporation with 10,000 nM antisense oligonucleotide, approximately 24 hours, RTS5062, percent inhibition of SMAD7 mRNA relative to untreated control cells

Row | Substance | % Inhibition [%]
5 | 799846 (kT*k[5mC]*k[5mC]*dA*d[5mC]*dT*dA*dT*dT*d[5mC]*dT*dA*dT*kG*kA*kA; antisense) [compound 799846] | 25
6 | 799767 (kT*k[5mC]*kT*dG*dT*dT*dT*dG*dG*dA*d[5mC]*dA*dA*kG*kT*kT; antisense) [compound 799767] | 47

Same assay, conditions: Hep3B cells, electroporation with 10,000 nM antisense oligonucleotide, approximately 24 hours, SMAD7 mRNA by RT-PCR (RTS5062), relative to untreated control cells

Row | Substance | % Inhibition [%]
7 | 798702 (antisense k[5mC]*k[5mC]*k[5mC]*d[5mC]*dT*dT*d[5mC]*dT*d[5mC]*d[5mC]*d[5mC]*d[5mC]*dG*k[5mC]*kA*kG) [compound 798702] | 45
8 | 799334 (k[5mC]*k[5mC]*kG*dT*dA*dG*dA*d[5mC]*d[5mC]*d[5mC]*d[5mC]*dT*dT*k[5mC]*kG*kG; antisense) [compound 799334] | 21
9 | 799414 (antisense k[5mC]*kA*kA*dA*dA*d[5mC]*d[5mC]*dA*dG*d[5mC]*d[5mC]*d[5mC]*d[5mC]*kA*kG*kA) [compound 799414] | 34
10 | 798680 (antisense k[5mC]*kA*kT*dG*dA*d[5mC]*d[5mC]*dT*d[5mC]*d[5mC]*dG*d[5mC]*dA*k[5mC]*kA*k[5mC]) [compound 798680] | 31
11 | 830033 (antisense kT*k[5mC]*k[5mC]*d[5mC]*d[5mC]*d[5mC]*dT*dT*dG*dG*dA*dA*dA*kT*kG*kG) [compound 830033] | 28
12 | 798716 (antisense k[5mC]*k[5mC]*kT*dG*d[5mC]*d[5mC]*d[5mC]*dG*dG*dG*d[5mC]*d[5mC]*dG*k[5mC]*k[5mC]*kG) [compound 798716] | 0
13 | 798772 (k[5mC]*kT*kT*d[5mC]*d[5mC]*dG*dA*dG*dG*dA*dA*dT*dG*k[5mC]*k[5mC]*kT; antisense) [compound 798772] | 48
14 | 830114 (kG*kA*kG*d[5mC]*d[5mC]*d[5mC]*d[5mC]*dA*dT*dT*d[5mC]*dA*dT*kT*kA*kA; antisense) [compound 830114] | 22
15 | 799258 (antisense kG*k[5mC]*k[5mC]*d[5mC]*d[5mC]*dA*dA*dA*dA*d[5mC]*dT*d[5mC]*d[5mC]*kA*kA*kA) [compound 799258] | 4
16 | 799357 (k[5mC]*kA*k[5mC]*dA*dA*d[5mC]*dA*dG*dA*dA*dA*dA*dA*kT*kT*k[5mC]; antisense) [compound 799357] | 41
17 | 800064 (antisense kA*kT*kG*dG*dA*dG*dG*dT*dG*d[5mC]*d[5mC]*d[5mC]*dG*kT*k[5mC]*kA) [compound 800064] | 0
18 | 799901 (antisense kA*kG*kT*d[5mC]*dA*dA*dG*dT*d[5mC]*dT*d[5mC]*dT*dT*kA*k[5mC]*k[5mC]) [compound 799901] | 31
19 | 800068 (antisense kA*k[5mC]*kA*d[5mC]*dT*dA*dA*d[5mC]*dT*dG*dG*d[5mC]*dT*k[5mC]*k[5mC]*kA) [compound 800068] | 34
20 | 798668 (kT*k[5mC]*k[5mC]*dG*dT*dG*dG*d[5mC]*dA*dT*dG*d[5mC]*dG*k[5mC]*k[5mC]*kA; antisense) [compound 798668] | 45

Same assay, conditions: Hep3B cells, electroporation with 10,000 nM antisense oligonucleotide, approximately 24 hours, primer probe set RTS5062, relative to untreated control cells

Row | Substance | % Inhibition [%] | % inhibition of SMAD7 mRNA expression [%]
21 | 798956 (antisense k[5mC]*kT*kT*dT*dT*d[5mC]*dA*dT*dA*dA*dG*d[5mC]*dT*kA*kT*kT) [compound 798956] | 22 | –
22 | 799192 (antisense kT*kT*kT*d[5mC]*d[5mC]*dA*dA*dT*dG*dA*dG*dA*dA*kT*kG*k[5mC]) [compound 799192] | 60 | –
23 | 798991 (antisense k[5mC]*k[5mC]*kT*dG*dA*d[5mC]*dA*dA*dG*dT*dG*dA*dA*kA*kT*kG) [compound 798991] | – | 23
24 | 798934 (antisense kG*k[5mC]*kA*dA*dG*d[5mC]*dA*d[5mC]*dT*d[5mC]*dA*dG*dG*kA*kG*kG) [compound 798934] | – | 40
25 | 799094 (antisense kT*kG*kA*dT*dG*dT*d[5mC]*dA*d[5mC]*d[5mC]*dA*dG*dG*kG*k[5mC]*kA) [compound 799094] | 57 | –
26 | 799423 (antisense kT*kA*k[5mC]*d[5mC]*dA*dG*dG*d[5mC]*d[5mC]*d[5mC]*d[5mC]*dA*dG*k[5mC]*k[5mC]*k[5mC]) [compound 799423] | – | 14
27 | 799198 (antisense kG*kT*k[5mC]*d[5mC]*dT*dT*dT*d[5mC]*dT*d[5mC]*dT*d[5mC]*dT*k[5mC]*kA*kA) [compound 799198] | – | 17
28 | 799100 (antisense kG*kA*kA*dA*dA*dA*d[5mC]*d[5mC]*dT*dG*dA*dT*dG*kT*k[5mC]*kA) [compound 799100] | 38 | –
29 | 772717 (kA*k[5mC]*kT*d[5mC]*d[5mC]*dT*dT*dT*dA*dG*dA*dA*dA*kA*kA*k[5mC]; antisense) [compound 772717] | – | 28
30 | 799103 (antisense k[5mC]*k[5mC]*kG*dG*dG*dA*dA*dA*dA*dA*d[5mC]*d[5mC]*dT*kG*kA*kT) [compound 799103] | – | 12
31 | 798996 (antisense k[5mC]*kA*k[5mC]*dA*d[5mC]*dT*d[5mC]*dA*d[5mC]*dA*d[5mC]*dT*d[5mC]*kA*k[5mC]*kA) [compound 798996] | 49 | –
32 | 798785 (k[5mC]*kT*kA*dG*dT*dT*d[5mC]*dG*d[5mC]*dA*dG*dA*dG*kT*k[5mC]*kG; antisense) [compound 798785] | – | 0

Same assay, conditions: Hep3B cells, electroporation, 10,000 nM antisense oligonucleotide, approximately 24 hours, RTS5062, relative to untreated control cells

Row | Substance | % inhibition of SMAD7 mRNA expression [%]
33 | 799696 (antisense kA*kA*kG*dT*dT*dA*dT*d[5mC]*dT*dG*dG*dG*dA*kA*kG*k[5mC]) [compound 799696] | 43
34 | 799271 (antisense k[5mC]*kT*k[5mC]*dG*dA*dG*dT*d[5mC]*dA*dG*dG*d[5mC]*dT*k[5mC]*kA*kA) [compound 799271] | 60
35 | 799593 (kG*kA*kA*dG*dG*dA*dG*d[5mC]*dT*d[5mC]*dA*dA*dA*k[5mC]*kT*kT; antisense) [compound 799593] | 0
36 | 799831 (antisense kT*kA*k[5mC]*dT*dT*dG*dG*dA*dA*dG*dA*dG*dT*kT*kT*kG) [compound 799831] | 18

Same assay, conditions: SMAD7 mRNA, Hep3B cells, 10,000 nM antisense oligonucleotide, electroporation, approximately 24 hours, primer probe set RTS5062, relative to untreated control cells

Row | Substance | % Inhibition [%]
37 | 801003 (antisense kG*kA*kA*dT*d[5mC]*dA*dA*dG*d[5mC]*d[5mC]*d[5mC]*dT*dG*kG*k[5mC]*kT) [compound 801003] | 38
38 | 772765 (kG*kA*kT*dT*dG*dG*d[5mC]*dA*dG*dG*dT*dT*dA*kA*kT*k[5mC]; antisense) [compound 772765] | 35
39 | 829778 (antisense kG*kG*kA*dG*d[5mC]*dG*dA*dG*dT*dA*dG*dG*dA*k[5mC]*kG*kA) [compound 829778] | 46
40 | 790775 (kT*kA*k[5mC]*dA*dA*dG*dG*dT*dG*dA*dA*dA*dG*kT*kT*kA; antisense) [compound 790775] | 7

Same assay, conditions: SMAD7 mRNA, Hep3B cells, electroporation with 10,000 nM antisense oligonucleotide, approximately 24 hours, primer probe set RTS5062, relative to untreated control cells

Row | Substance | % Inhibition [%]
41 | 829861 (antisense k[5mC]*k[5mC]*kA*dT*d[5mC]*d[5mC]*dA*d[5mC]*d[5mC]*dT*d[5mC]*d[5mC]*d[5mC]*kG*k[5mC]*kG) [compound 829861] | 35
42 | 829973 (kA*kA*kG*dA*dG*dG*d[5mC]*d[5mC]*dG*d[5mC]*d[5mC]*dT*dG*kG*k[5mC]*kG; antisense) [compound 829973] | 17
43 | 829804 (kT*kA*kG*dT*dT*d[5mC]*dG*d[5mC]*dA*dG*dA*dG*dT*k[5mC]*kG*kG; antisense) [compound 829804] | 39
44 | 829799 (kT*k[5mC]*kG*dG*d[5mC]*dT*dA*dA*dG*dG*dT*dG*dA*kT*kG*kG; antisense) [compound 829799] | 51

Source: US10517889B2, “Modulators of SMAD7 expression” (Ionis Pharmaceuticals, Inc., priority 2017, dated 2019)
